Values quoted from earlier work as cited in patent US20160338951A1 (Gavis Pharmaceuticals, priority 2015, published 2016).

Conditions: olopatadine by itself, water pH about 7.0, room temperature

## CN(C)CC/C=C1/c2ccccc2COc2ccc(CC(=O)O)cc21 [olopatadine, 11-[(Z)-3(Dimethylamino)propylidene]-6-11dihydrodibenz [b,e] oxepin-2-acetic acid]
  soluble in water up to a concentration: about 0.18 w/v %
